Experimental findings from patent US8969248B2, “5-iodotriazole derivatives” (Bayer Intellectual Property GmbH, priority 2010, dated 2015) are described below.

What all share (format): in vivo
The test system of one experiment is Puccinia recondita. The experiment can be described thus: Puccinia test (wheat)/protective. The settings on record: protective spray, 500 ppm, evaluation 7-9 days after inoculation.
For the next experiment, the system named is Venturia inaequalis. Put plainly: Venturia test (apple)/protective. The settings on record: protective spray, 100 ppm, evaluation 10 days after inoculation. As to the method: (§1) [table] To produce an appropriate active ingredient formulation, 1 part by weight of active ingredient is mixed with the specified amounts of solvent and emulsifier, and the concentrate is diluted with water to the desired concentration. To test for protective activity, young plants are sprayed with the active ingredient formulation at the stated application rate. […] The plants are then placed in a greenhouse at approx. 21° C. and a relative air humidity of approx. 90%.

The next experiment concerns Uromyces appendiculatus. Put plainly: Uromyces test (bean)/protective. The settings on record: protective spray, 100 ppm, evaluation 10 days after inoculation. As to the method:
as §1

The next experiment concerns Sphaerotheca fuliginea. The experiment can be described thus: Sphaerotheca test (cucumber)/protective. The settings on record: protective spray, 500 ppm, evaluation 7 days after inoculation. As to the method:
[table] To produce an appropriate active ingredient formulation, 1 part by weight of active ingredient is mixed with the specified amounts of solvent and emulsifier, and the concentrate is diluted with water to the desired concentration. To test for protective activity, young cucumber plants are sprayed with the active ingredient formulation at the stated application rate. 1 day after the treatment, the plants are inoculated with a spore suspension of Sphaerotheca fuliginea. The plants are then placed in a greenhouse at 70% relative air humidity and a temperature of 23° C.

A further experiment relates to Pyrenophora teres. Put plainly: Pyrenophora teres test (barley)/protective. The settings on record: protective spray, 500 ppm, evaluation 8 days after inoculation. As to the method: [table] To produce an appropriate active ingredient formulation, 1 part by weight of active ingredient is mixed with the specified amounts of solvent and emulsifier, and the concentrate is diluted with water to the desired concentration. To test for protective activity, young plants are sprayed with the active ingredient formulation at the stated application rate. After the spray coating has dried on, the plants are sprayed with a spore suspension of Pyrenophora teres.

For the next experiment, the system named is Septoria tritici. The experiment can be described thus: Septoria tritici test (wheat)/protective. The settings on record: protective spray, 500 ppm, evaluation 21 days after inoculation.
For the next experiment, the system named is Botrytis cinerea. Put plainly: Botrytis test (bean)/protective. The settings on record: protective spray, 250 ppm, evaluation 2 days after inoculation. As to the method: [table] To produce an appropriate active ingredient formulation, 1 part by weight of active ingredient is mixed with the specified amounts of solvent and emulsifier, and the concentrate is diluted with water to the desired concentration. To test for protective activity, young plants are sprayed with the active ingredient formulation at the stated application rate. After the spray coating has dried on, 2 small pieces of agar colonized by Botrytis cinerea are placed onto each leaf.

Experiment [1] deals with Blumeria graminis f. sp. hordei. The experiment can be described thus: Blumeria graminis test (barley)/protective. The settings on record: protective spray, 500 ppm, evaluation 7 days after inoculation. As to the method: [table] To produce an appropriate active ingredient formulation, 1 part by weight of active ingredient is mixed with the specified amounts of solvent and emulsifier, and the concentrate is diluted with water to the desired concentration. To test for protective activity, young plants are sprayed with the active ingredient formulation at the stated application rate. After the spray coating has dried on, the plants are dusted with spores of Blumeria graminis f. sp. hordei.

Another experiment concerns Leptosphaeria nodorum. Put plainly: Leptosphaeria nodorum test (wheat)/protective. The settings on record: protective spray, 500 ppm, evaluation 8 days after inoculation. As to the method: [table] To produce an appropriate active ingredient formulation, 1 part by weight of active ingredient is mixed with the specified amounts of solvent and emulsifier, and the concentrate is diluted with water to the desired concentration. To test for protective activity, young plants are sprayed with the active ingredient formulation at the stated application rate. After the spray coating has dried on, the plants are sprayed with spores with a spore suspension of Leptosphaeria nodorum.

The test system of a further experiment is Fusarium graminearum. The settings on record: barley, protective spray, 500 ppm, evaluation 5 days after inoculation.
In the next experiment the test system is Phakopsora pachyrhizi. Put plainly: Phakopsora test (soya beans)/protective. The settings on record: protective spray, 100 ppm, evaluation 1 days after inoculation (so in the source).
In the next experiment the test system is Pyricularia oryzae. The settings on record: rice, protective spray, 250 ppm, evaluation 5 days after inoculation.
The next experiment concerns Cochliobolus miyabeanus. Put plainly: Cochliobolus test (rice)/protective. The settings on record: protective spray, 250 ppm, evaluation 4 days after inoculation.

Regarding `OC(Cn1ncnc1I)(c1ccc(Br)cc1)C1(Oc2ccccc2)CC1` (stereo not shown) [Compound 9], the “Efficacy (%)” value with Puccinia recondita, in the experiment with Venturia inaequalis, in the experiment on Uromyces appendiculatus and in the experiment with Sphaerotheca fuliginea was 100% each time.

With `Fc1ccc(C2(Cn3ncnc3I)OC2c2ccccc2Cl)cc1` (stereo not shown) [Compound 1], the “Efficacy (%)” value in the experiment on Puccinia recondita is reported as 100%; in the experiment with Pyrenophora teres it was 78%; with Septoria tritici, 100%; with Venturia inaequalis, 97%; in the experiment on Uromyces appendiculatus it was 97%; in the experiment with Sphaerotheca fuliginea, 100%. Also, the “Efficacy (%)” value was found to be 73% in the experiment with Botrytis cinerea, 100% in experiment [1], 100% with Leptosphaeria nodorum and 75% with Fusarium graminearum.

Turning to `OC(Cn1ncnc1I)(c1ccc(Cl)cc1)C1(Oc2ccccc2F)CC1` (stereo not shown) [Compound 7], the “Efficacy (%)” value came to 100% with Puccinia recondita; 100% with Venturia inaequalis; 100% with Uromyces appendiculatus; 100% in the experiment with Sphaerotheca fuliginea; 98% in the experiment on Phakopsora pachyrhizi.

Consider `OC(Cn1ncnc1I)(c1ccc(F)cc1F)C1(Oc2ccc(F)cc2)CC1` (stereo not shown) [Compound 10], for which the “Efficacy (%)” value came out at 100% with Puccinia recondita; 97% in the experiment on Pyricularia oryzae; 100% in the experiment on Venturia inaequalis; 100% in the experiment on Uromyces appendiculatus; 100% in the experiment with Sphaerotheca fuliginea; 98% with Phakopsora pachyrhizi.

Turning to `OC(Cc1ccccc1Cl)(Cn1ncnc1I)C1(F)CC1` (stereo not shown) [Compound 13], the “Efficacy (%)” value is 100% in the experiment on Pyrenophora teres; 100% in the experiment on Septoria tritici; 99% in the experiment with Venturia inaequalis; 100% with Uromyces appendiculatus; 100% in the experiment with Sphaerotheca fuliginea; 100% in experiment [1]. The entries for the “Efficacy (%)” value in the experiment on Leptosphaeria nodorum and in the experiment on Fusarium graminearum were 86% and 100%, respectively.

With `CC(C)(C)C(O)(CCc1ccc(Cl)cc1)Cn1ncnc1I` (stereo not shown) [Compound 2], the “Efficacy (%)” value in the experiment on Puccinia recondita came to 100%; with Pyrenophora teres, 94%; in the experiment with Venturia inaequalis, 100%; with Uromyces appendiculatus it was 100%; with Sphaerotheca fuliginea, 100%; with Botrytis cinerea it was 90%. Moreover, the “Efficacy (%)” value (in [1]; in the experiment on Leptosphaeria nodorum; with Fusarium graminearum) was 100% throughout.

On to `OC(Cn1ncnc1I)(c1ccc(Br)cc1)C1(Oc2ccc(F)cc2)CC1` (stereo not shown) [Compound 6], for which the “Efficacy (%)” value in the experiment with Puccinia recondita and in the experiment on Sphaerotheca fuliginea was 100% throughout.

In the case of `OC(Cn1ncnc1I)(c1ccc(F)cc1F)C1(Oc2ccccc2Cl)CC1` (stereo not shown) [Compound 11], the “Efficacy (%)” value in the experiment on Puccinia recondita was determined as 94%; with Pyricularia oryzae, 93%; in the experiment on Sphaerotheca fuliginea, 100%.

For the compound `Fc1cccc(C2(Cn3ncnc3I)OC2c2ccccc2Cl)c1` (stereo not shown) [Compound 16], the “Efficacy (%)” value with Puccinia recondita was 90%; in the experiment with Sphaerotheca fuliginea it was 100%.

Regarding `CC(C)(C)C(O)(COc1ccc(Cl)cc1)Cn1ncnc1I` (stereo not shown) [Compound 18], the “Efficacy (%)” value was determined as 100% in the experiment with Puccinia recondita; 93% in the experiment on Pyrenophora teres; 100% in the experiment on Septoria tritici; 100% with Venturia inaequalis; 100% in the experiment with Uromyces appendiculatus; 100% with Sphaerotheca fuliginea. The “Efficacy (%)” value (in experiment [1]; in the experiment on Leptosphaeria nodorum) was 100% throughout.

Regarding `CC1COC(Cn2ncnc2I)(c2ccc(Oc3ccc(Cl)cc3)cc2Cl)O1` (mixture of isomers) [Compound 8], the “Efficacy (%)” value came out at 100% in the experiment with Puccinia recondita; 88% with Pyrenophora teres; 100% in the experiment with Venturia inaequalis; 100% in the experiment with Uromyces appendiculatus; 100% in the experiment with Sphaerotheca fuliginea; 100% in [1]. Also, the “Efficacy (%)” value in the experiment on Phakopsora pachyrhizi is 98%; with Leptosphaeria nodorum, 94%.

With `CC(C1CC1)C(O)(Cn1ncnc1I)c1ccc(Cl)cc1` (stereo not shown) [Compound 17], the results for the “Efficacy (%)” value in the experiment on Puccinia recondita and with Sphaerotheca fuliginea were 89% and 95%, respectively.

With `OC(Cc1ccc(F)cc1)(Cn1ncnc1I)C1(Cl)CC1` (stereo not shown) [Compound 4], the “Efficacy (%)” value in the experiment on Puccinia recondita is 100%; with Pyrenophora teres it was 100%; in the experiment with Pyricularia oryzae, at least 80%; with Septoria tritici, 100%; in the experiment on Venturia inaequalis it was 100%; with Uromyces appendiculatus, 100%. Further, the “Efficacy (%)” value in the experiment with Sphaerotheca fuliginea came to 100%; with Botrytis cinerea it was 89%; in experiment [1] it was 100%; in the experiment with Leptosphaeria nodorum, 93%; in the experiment on Fusarium graminearum, 100%. The same compound gave an efficacy in the experiment on Cochliobolus miyabeanus of at least 80%.
